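Where inhibition never reached the appropriate level, the endpoint shown equals the highest concentration tested. Otherwise, values were interpolated linearly from a five-concentration, 48-hour dose response in 96-well plates. GI50 marks 50% less growth. TGI: concentration producing complete growth inhibition.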
What was measured:
Assay in all cases: DTP human tumour cell line panel, 48 h
786-0 renal = test system: 786-0 renal
A498 renal = test system: A498 renal
A549 NSCLC = test system: A549 NSCLC
ACHN renal = test system: ACHN renal
BT-549 breast = test system: BT-549 breast
CAKI-1 renal = test system: CAKI-1 renal
CCRF-CEM leukemia = test system: CCRF-CEM leukemia
COLO 205 colon = test system: COLO 205 colon
DU-145 prostate = test system: DU-145 prostate
EKVX NSCLC = test system: EKVX NSCLC
HCC-2998 colon = test system: HCC-2998 colon
HCT-116 colon = test system: HCT-116 colon
HCT-15 colon = test system: HCT-15 colon
HL-60(TB) leukemia = test system: HL-60(TB) leukemia
HOP-62 NSCLC = test system: HOP-62 NSCLC
HOP-92 NSCLC = test system: HOP-92 NSCLC
HS 578T breast = test system: HS 578T breast
HT29 colon = test system: HT29 colon
IGROV1 ovarian = test system: IGROV1 ovarian
K-562 leukemia = test system: K-562 leukemia
KM12 colon = test system: KM12 colon
LOX IMVI melanoma = test system: LOX IMVI melanoma
M14 melanoma = test system: M14 melanoma
MALME-3M melanoma = test system: MALME-3M melanoma
MCF7 breast = test system: MCF7 breast
MDA-MB-231 breast = test system: MDA-MB-231 breast
MDA-MB-435 = test system: MDA-MB-435
MDA-MB-468 breast = test system: MDA-MB-468 breast
MOLT-4 leukemia = test system: MOLT-4 leukemia
NCI-H226 lung = test system: NCI-H226 lung
NCI-H23 lung = test system: NCI-H23 lung
NCI-H460 lung = test system: NCI-H460 lung
NCI-H522 lung = test system: NCI-H522 lung
NCI/ADR-RES ovarian = test system: NCI/ADR-RES ovarian
OVCAR-3 ovarian = test system: OVCAR-3 ovarian
OVCAR-4 ovarian = test system: OVCAR-4 ovarian
OVCAR-5 ovarian = test system: OVCAR-5 ovarian
OVCAR-8 ovarian = test system: OVCAR-8 ovarian
PC-3 prostate = test system: PC-3 prostate
RPMI-8226 leukemia = test system: RPMI-8226 leukemia
RXF 393 renal = test system: RXF 393 renal
SF-268 CNS = test system: SF-268 CNS
SF-295 CNS = test system: SF-295 CNS
SF-539 CNS = test system: SF-539 CNS
SK-MEL-2 melanoma = test system: SK-MEL-2 melanoma
SK-MEL-28 melanoma = test system: SK-MEL-28 melanoma
SK-MEL-5 melanoma = test system: SK-MEL-5 melanoma
SK-OV-3 ovarian = test system: SK-OV-3 ovarian
SN12C renal = test system: SN12C renal
SNB-19 CNS = test system: SNB-19 CNS
SNB-75 CNS = test system: SNB-75 CNS
SR leukemia = test system: SR leukemia
SW-620 colon = test system: SW-620 colon
T-47D breast = test system: T-47D breast
TK-10 renal = test system: TK-10 renal
U251 CNS = test system: U251 CNS
UACC-257 melanoma = test system: UACC-257 melanoma
UACC-62 melanoma = test system: UACC-62 melanoma
UO-31 renal = test system: UO-31 renal

C=C1CCC2C3(C)COC(c4cc(F)cc(F)c4)OC3CCC2(C)C1C/C=C1/C(=O)OCC1O (stereo not drawn)
GI50 (786-0 renal): 1730 nM
TGI (786-0 renal): 3130 nM
GI50 (A498 renal): 3410 nM
TGI (A498 renal): 15600 nM
GI50 (A549 NSCLC): 2550 nM
TGI (A549 NSCLC): 8390 nM
GI50 (ACHN renal): 1700 nM
TGI (ACHN renal): 3070 nM
GI50 (BT-549 breast): 1410 nM
TGI (BT-549 breast): 2730 nM
GI50 (CAKI-1 renal): 1620 nM
TGI (CAKI-1 renal): 3010 nM
GI50 (CCRF-CEM leukemia): 649 nM
TGI (CCRF-CEM leukemia): 4190 nM
GI50 (COLO 205 colon): 1860 nM
TGI (COLO 205 colon): 3320 nM
GI50 (DU-145 prostate): 2210 nM
TGI (DU-145 prostate): 5110 nM
GI50 (EKVX NSCLC): 2500 nM
TGI (EKVX NSCLC): 6500 nM
GI50 (HCC-2998 colon): 1660 nM
TGI (HCC-2998 colon): 3160 nM
GI50 (HCT-116 colon): 1430 nM
TGI (HCT-116 colon): 2930 nM
GI50 (HCT-15 colon): 1440 nM
TGI (HCT-15 colon): 2980 nM
GI50 (HL-60(TB) leukemia): 1350 nM
TGI (HL-60(TB) leukemia): 3590 nM
GI50 (HOP-62 NSCLC): 1780 nM
TGI (HOP-62 NSCLC): 3440 nM
GI50 (HOP-92 NSCLC): 1770 nM
TGI (HOP-92 NSCLC): 3820 nM
GI50 (HS 578T breast): 2110 nM
TGI (HS 578T breast): 5610 nM
GI50 (HT29 colon): 1790 nM
TGI (HT29 colon): 3610 nM
GI50 (IGROV1 ovarian): 1810 nM
TGI (IGROV1 ovarian): 3530 nM
GI50 (K-562 leukemia): 1980 nM
TGI (K-562 leukemia): 6170 nM
GI50 (KM12 colon): 1900 nM
TGI (KM12 colon): 3860 nM
GI50 (LOX IMVI melanoma): 1480 nM
TGI (LOX IMVI melanoma): 2790 nM
GI50 (M14 melanoma): 1740 nM
TGI (M14 melanoma): 3390 nM
GI50 (MALME-3M melanoma): 1690 nM
TGI (MALME-3M melanoma): 3150 nM
GI50 (MCF7 breast): 1180 nM
TGI (MCF7 breast): 2600 nM
GI50 (MDA-MB-231 breast): 1670 nM
TGI (MDA-MB-231 breast): 3250 nM
GI50 (MDA-MB-435): 1550 nM
TGI (MDA-MB-435): 3100 nM
GI50 (MDA-MB-468 breast): 1730 nM
TGI (MDA-MB-468 breast): 3160 nM
GI50 (MOLT-4 leukemia): 2580 nM
TGI (MOLT-4 leukemia): 7520 nM
GI50 (NCI-H226 lung): 1730 nM
TGI (NCI-H226 lung): 3420 nM
GI50 (NCI-H23 lung): 1880 nM
TGI (NCI-H23 lung): 3750 nM
GI50 (NCI-H460 lung): 1620 nM
TGI (NCI-H460 lung): 3200 nM
GI50 (NCI-H522 lung): 1640 nM
TGI (NCI-H522 lung): 3230 nM
GI50 (NCI/ADR-RES ovarian): 1820 nM
TGI (NCI/ADR-RES ovarian): 3670 nM
GI50 (OVCAR-3 ovarian): 1620 nM
TGI (OVCAR-3 ovarian): 3120 nM
GI50 (OVCAR-4 ovarian): 1850 nM
TGI (OVCAR-4 ovarian): 4090 nM
GI50 (OVCAR-5 ovarian): 1590 nM
TGI (OVCAR-5 ovarian): 3210 nM
GI50 (OVCAR-8 ovarian): 1770 nM
TGI (OVCAR-8 ovarian): 4520 nM
GI50 (PC-3 prostate): 1750 nM
TGI (PC-3 prostate): 3600 nM
GI50 (RPMI-8226 leukemia): 2050 nM
TGI (RPMI-8226 leukemia): 5450 nM
GI50 (RXF 393 renal): 1730 nM
TGI (RXF 393 renal): 3230 nM
GI50 (SF-268 CNS): 1840 nM
TGI (SF-268 CNS): 3690 nM
GI50 (SF-295 CNS): 1560 nM
TGI (SF-295 CNS): 2980 nM
GI50 (SF-539 CNS): 1660 nM
TGI (SF-539 CNS): 3020 nM
GI50 (SK-MEL-2 melanoma): 1790 nM
TGI (SK-MEL-2 melanoma): 3380 nM
GI50 (SK-MEL-28 melanoma): 1770 nM
TGI (SK-MEL-28 melanoma): 3210 nM
GI50 (SK-MEL-5 melanoma): 1750 nM
TGI (SK-MEL-5 melanoma): 3210 nM
GI50 (SK-OV-3 ovarian): 9790 nM
TGI (SK-OV-3 ovarian): 22000 nM
GI50 (SN12C renal): 1520 nM
TGI (SN12C renal): 2890 nM
GI50 (SNB-19 CNS): 1730 nM
TGI (SNB-19 CNS): 3430 nM
GI50 (SNB-75 CNS): 1140 nM
TGI (SNB-75 CNS): 2400 nM
GI50 (SR leukemia): 2080 nM
TGI (SR leukemia): 5230 nM
GI50 (SW-620 colon): 1350 nM
TGI (SW-620 colon): 2810 nM
GI50 (T-47D breast): 1430 nM
TGI (T-47D breast): 3100 nM
GI50 (TK-10 renal): 1680 nM
TGI (TK-10 renal): 3250 nM
GI50 (U251 CNS): 1580 nM
TGI (U251 CNS): 3030 nM
GI50 (UACC-257 melanoma): 1730 nM
TGI (UACC-257 melanoma): 3440 nM
GI50 (UACC-62 melanoma): 1650 nM
TGI (UACC-62 melanoma): 3290 nM
GI50 (UO-31 renal): 1410 nM
TGI (UO-31 renal): 2700 nM

From PubChem BioAssay (NCI)
